The source of these data is patent publication US6077509A, “Peptide fragments of myelin basic protein” (Autoimmune, Inc., priority 1995, dated 2000).

The test system of test [1] is short term T-cell lines from peripheral blood mononuclear cells. The experiment in a line: Proliferation assay of short term T-cell lines for reactivity to MBP, PLP and overlapping MBP peptides. It is filed as cell-based, human. The conditions noted are these: for mean frequency of T-cell lines selectively reactive to the peptide, MS vs controls (FIG. 1): MS patients compared with combined controls. The method, then: A rapid T-cell cloning technique was used to examine whether there were immunodominant epitopes on human MBP reactive with Class II MHC phenotypes and the frequency of such reactivity. A total of 15,824 short term T-cell lines were generated from 51 human subjects by culturing peripheral blood mononuclear cells ([…]) with purified MBP (100 μg) followed 3 days later, and then every 3-4 days, by the addition of interleukin-2 (IL-2; from ABI, Columbia, Md.) and 2 units recombinant interleukin-4 (IL-4; Genzyme, Boston, Mass.). On Day 13 of culture, an aliquot from each line was tested for reactivity to MBP using the following proliferation assay: T-cell clones (1×10^5 cells/well) were plated in triplicate and cocultured with appropriate stimuli (i.e. 100 μg whole MBP or 5% IL-2) for 72 hours at 37° C., 90% humidity, 5% CO2, in 96 well flat bottomed microtiter plates (Costar). The cells were pulsed with 2 μCi [^3 H]TdR (2 Ci/mmole, New England Nuclear, Boston, Mass.) for the last 18 hours of culture. APCs were prepared by pulsing human Epstein-Barrvirus transformed human B-cells (the virus being commercially available from ATCC) or L-cells which are mouse cells transfected with human DR2 (L-cells are commercially available from ATCC under accession No. ATCC-CCL1 and can be transfected according to the method of Wilkinson, D. et al, J. Exp. Med., 1988, 167:1442-1458 using-DNA encoding DR2 as per Wu, S. et al J. Immunol., 1987, 138:2953). B-cells or L-cells were used at 1×10^6 cells/well in complete media either in the presence or absence of 40 pM MBP or phospholipid protein (PLP) for 2 hours at 37° C., washing twice with 4° C. […]
Subjects with other central nervous system diseases had the following diagnoses: 1-3 weeks after either cerebrovascular accident (n=4), brain trauma with CNS hemorrhage (n=4), or metastatic brain tumor (n=2). […] In addition, the frequency of MBP and PLP-reactive lines was calculated separately for each subject by dividing the number of MBP-reactive lines by the total number of lines generated and the mean values +/- SEM are given. […]

The test system of test [2] is actively induced EAE. The experiment in a line: Actively induced EAE (MBP/CFA immunization), clinical score. The test is classed as in vivo, Lewis rats. The conditions noted are these: for suppression of EAE via IV tolerization: intravenously prior to immunization for actively induced disease (FIG. 7).

For the molecule “FKGVDAQGTLSKIFKLGGRD [143-168, human MBP amino acid residues 143-168]”, the “mean frequency of T-cell lines selectively reactive to the peptide, MS vs controls (FIG. 1)” value in test [1] is “both MS and control subjects showed high frequencies”. For the molecule histone, the mean maximal score in test [2] (IV injection before immunization with MBP/CFA, clinical scale 0-5) stood at 3.0±0.3.

HHPARTAHYGSLPQKSEGRT [61-82]: in test [1], the “mean frequency of T-cell lines selectively reactive to the peptide, MS vs controls (FIG. 1)” value is “Significant but less striking increases in reactivity”.

On to “131-150: Control guinea pig MBP peptide 131-150 (DYKSKGFKGAHDAQGTLSKI; UniProt P25188 131-150, looked up, fragment)”, for which, in test [2], the “suppression of EAE via IV tolerization” value was “did not suppress”. Besides, in test [2] (orally prior to immunization for actively induced disease (FIG. 7)), the “suppression of EAE via oral tolerization” value was “did not suppress”.

B1: proteolipid protein (protein, UniProt P60201 2-277, looked up)
Myelin proteolipid protein: GLLECCARCLVGAPFASLVATGLCFFGVALFCGCGHEALTGTEKLIETYFSKNYQDYEYLINVIHAFQYVIYGTASFFFLYGALLLAEGFYTTGAVRQIFGDYKTTICGKGLSATVTGGQKGRGSRGQHQAHSLERVCHCLGKWLGHPDKFVGITYALTVVWLLVFACSAVPVYIYFNTWTTCQSIAFPSKTSASIGSLCADARMYGVLPWNAFPGKVCGSNLLSICKTAEFQMTFHLFIAAFVGAAATLVSLLTFMIAATYNFAVLKLMGRGTKF
Turning to B1, the “MEAN FREQUENCY OF Ag REACTIVE LINES” value in test [1] (other neurological disease (n = 10), mean +/- SEM) is listed as 0.90 ± 0.62.

B2: myelin basic protein (protein, UniProt P25188 1-167, looked up)
Myelin basic protein: ASQKRPSQRHGSKYLATASTMDHARHGFLPRHRDTGILDSIGRFFGSDRAAPKRGSGKDSHHAARTTHYGSLPQKSQRSQDENPVVHFFKNIVTPRTPPPSQGKGRGLSLSRFSWGAEGQKPGFGYGGRADYKSKGFKGAHDAQGTLSKIFKLGGRDSRSGSPMARR
As for B2, the “suppression of EAE via IV tolerization” value in test [2] is “suppression of EAE”.
